Measurements from the supplement of paper PMC10307832.

Tests used:
Test in all cases: relative viability (nuclei count vs DMSO), 5 days (fraction); higher = more cells survive
Afatinib + OSI-027 = compound: CN(C)C/C=C/C(=O)Nc1cc2c(Nc3ccc(F)c(Cl)c3)ncnc2cc1O[C@H]1CCOC1 [Afatinib] + COc1cccc2cc(-c3nc([C@H]4CC[C@H](C(=O)O)CC4)n4ncnc(N)c34)[nH]c12 [OSI-027] (partner 0.5 µM)
Outline: (§1)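 Medians of duplicate plates are given as relative viability. That measure is the nuclei count in treated wells divided by the count in vehicle wells. Counts were taken on 4× images of lung cancer cell lines in 1536-well plates, 5 days after pin-tool dosing the day after seeding with one drug alone or a fixed anchor-drug dose plus five library-drug doses (not always all listed) in √10 steps.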

Afatinib + AZD7762 = compound: CN(C)C/C=C/C(=O)Nc1cc2c(Nc3ccc(F)c(Cl)c3)ncnc2cc1O[C@H]1CCOC1 [Afatinib] + NC(=O)Nc1cc(-c2cccc(F)c2)sc1C(=O)N[C@H]1CCCNC1 [AZD7762] (partner 0.2 µM)
Outline: as §1

Afatinib + Foretinib = compound: CN(C)C/C=C/C(=O)Nc1cc2c(Nc3ccc(F)c(Cl)c3)ncnc2cc1O[C@H]1CCOC1 [Afatinib] + COc1cc2c(Oc3ccc(NC(=O)C4(C(=O)Nc5ccc(F)cc5)CC4)cc3F)ccnc2cc1OCCCN1CCOCC1 [Foretinib] (partner 0.25 µM)
Outline: as §1

Afatinib + Pemetrexed = compound: CN(C)C/C=C/C(=O)Nc1cc2c(Nc3ccc(F)c(Cl)c3)ncnc2cc1O[C@H]1CCOC1 [Afatinib] + Nc1nc2[nH]cc(CCc3ccc(C(=O)N[C@@H](CCC(=O)O)C(=O)O)cc3)c2c(=O)[nH]1 [Pemetrexed] (partner 0.2 µM)
Outline: as §1

Cell Line	relative viability (Afatinib + OSI-027; first compound 0.005 µM)	relative viability (Afatinib + OSI-027; first compound 0.01581 µM)	relative viability (Afatinib + OSI-027; first compound 0.05 µM)	relative viability (Afatinib + OSI-027; first compound 0.1581 µM)	relative viability (Afatinib + OSI-027; first compound 0.5 µM)	relative viability (Afatinib + AZD7762; first compound 0.005 µM)	relative viability (Afatinib + AZD7762; first compound 0.01581 µM)	relative viability (Afatinib + AZD7762; first compound 0.05 µM)	relative viability (Afatinib + AZD7762; first compound 0.1581 µM)	relative viability (Afatinib + AZD7762; first compound 0.5 µM)	relative viability (Afatinib + Foretinib; first compound 0.005 µM)	relative viability (Afatinib + Foretinib; first compound 0.01581 µM)	relative viability (Afatinib + Foretinib; first compound 0.05 µM)	relative viability (Afatinib + Foretinib; first compound 0.1581 µM)	relative viability (Afatinib + Foretinib; first compound 0.5 µM)	relative viability (Afatinib + Pemetrexed; first compound 0.005 µM)	relative viability (Afatinib + Pemetrexed; first compound 0.01581 µM)	relative viability (Afatinib + Pemetrexed; first compound 0.05 µM)	relative viability (Afatinib + Pemetrexed; first compound 0.1581 µM)	relative viability (Afatinib + Pemetrexed; first compound 0.5 µM)
NCI-H23	0.585	0.611	0.54	0.599	0.47	0.17	0.226	0.237	0.23	0.195	0.99	1.02	1.02	0.847	0.951	0.667	0.609	0.586	0.704	0.567
CAL-12T	0.75	0.456	0.392	0.307	0.374	0.631	0.594	0.546	0.491	0.505	1.15	1.02	1.29	0.56	0.684	1.22	0.928	1.46	0.491	0.855
EPLC-272H	0.279	0.203	0.231	0.213	0.211	0.139	0.229	0.175	0.187	0.168	0.492	0.426	0.406	0.381	0.355	0.349	0.381	0.301	0.285	0.318
LCLC-103H	0.48	0.46	0.54	0.482	0.479	0.758	0.814	0.758	0.781	0.78	0.832	0.814	0.734	0.834	0.846	0.485	0.478	0.514	0.492	0.48
NCI-H2405	0.65	0.67	0.712	0.603	0.701	0.763	0.759	0.839	0.666	0.562	1.07	1.02	1.05	0.978	1.08	1.09	1.14	1.12	1.01	0.953
HCC-15	0.708	0.753	0.733	0.724	0.547	1.14	1.39	1.32	1.19	1.05	1.04	1.15	1.08	1.07	0.988	0.226	0.222		0.207	0.234
PC-3 [JPC-3]	0.257	0.271	0.23	0.182	0.238	0.52	0.413	0.307	0.353	0.422	0.472	0.508	0.42	0.388	0.343	0.514	0.384	0.462	0.414	0.431
NCI-H1944	0.429	0.329	0.328	0.311	0.327	0.297	0.496	0.413	0.343	0.404	0.797	0.899	0.668	0.535	0.657	0.605	0.583	0.511	0.378	0.453
